What was measured:
[1] = test system: recombinant NL4-3 virus (nef section replaced with Renilla luciferase gene) in MT-2 cells; assay: HIV cell culture assay (antiviral activity, luciferase readout); format: cell-based; details: MT-2 cells infected for 4-5 days with recombinant NL4-3 luciferase virus
Method: HIV cell culture assay—MT-2 cells, 293T cells and the proviral DNA clone of NL4-3 virus were obtained from the NIH AIDS Research and Reference Reagent Program. MT-2 cells were propagated in RPMI 1640 media supplemented with 10% heat inactivated fetal bovine serum (FBS), 100 μg/ml penicillin G and up to 100 units/mL streptomycin. The 293T cells were propagated in DMEM media supplemented with 10% heat inactivated FBS, 100 μg/mL penicillin G and 100 μg/mL streptomycin. A recombinant NL4-3 proviral clone, in which a section of the nef gene was replaced with the Renilla luciferase gene, was used to make the reference virus used in these studies. The recombinant virus was prepared through transfection of the recombinant NL4-3 proviral clone into 293T cells using Transit-293 Transfection Reagent from Mirus Bio LLC (Madison, Wis.). Supernatent was harvested after 2-3 days and the amount of virus present was titered in MT-2 cells using luciferase enzyme activity as a marker by measuring luciferase enzyme activity. Luciferase was quantitated using the EnduRen Live Cell Substrate from Promega (Madison, Wis.). Antiviral activities of compounds toward the recombinant virus were quantified by measuring luciferase activity in MT-2 cells infected for 4-5 days with the recombinant virus in the presence of serial dilutions of the compound.
The 50% effective concentration (ECs) was calculated by using the exponential form of the median effect equation where (Fa)=1/[1+(ED50/drug conc.)^m] (Johnson Va., Byington RT. Infectivity Assay. In Techniques in HIV Research. ed. Aldovini A, Walker BD. 71-76. New York: Stockton Press. 1990).

[2] = Compound cytotoxicity, XTT-based colorimetric assay; format: cell-based; details: human, uninfected MT2 cells
Method: Compound cytotoxicity and the corresponding CC50 values were determined using the same protocol as described in the antiviral assay except that uninfected cells were used. Cytotoxicity was assessed on day 4 in uninfected MT2 cells by using a XTT (2,3-bis[2-Methoxy-4-nitro-5-sulfophenyl]-2H-tetrazolium-5-carboxyanilide inner salt)-based colorimetric assay (Sigma-Aldrich, St Louis, Mo.). Biological data for select compounds of the invention are contained in Table 1 and Table 1a

| SMILES | CC50 at 4 days ([2]; Table 1a, day 4, XTT) [µM] | CC50 at 4 days ([2]; Table 1, day 4, XTT) [µM] | EC50 ([1]; Table 1) [nM] | further results |
| --- | --- | --- | --- | --- |
| Cn1nc(NS(C)(=O)=O)c2c(Cl)ccc(-n3c([C@H](Cc4cc(F)cc(F)c4)NC(=O)Cn4nc(C(F)F)c5c4C(F)(F)[C@@H]4C[C@H]54)nc4cc(C5CC5)ccc4c3=O)c21 (mixture of isomers) [Example 197, N—((S)-1-(3-(4-chloro-1-methyl-3-(methylsulfonamido)-1H-indazol-7-yl)-7-cyclopropyl-4-oxo-3,4-dihydroquinazolin-2-yl)-2-(3,5-difluorophenyl)ethyl)-2-((3bS,4aR)-3-(difluoromethyl)-5,5-difluoro-3b,4,4a,5-tetrahydro-1H-cyclopropa[3,4]cyclopenta[1,2-c]pyrazol-1-yl)acetamide] | > 1 | – | – | EC50 ([1]; Table 1a): 42.6 nM |
| Cn1nc(NS(C)(=O)=O)c2c(Cl)ccc(-n3c([C@H](Cc4cc(F)cc(F)c4)NC(=O)Cn4nc(C(F)F)c5c4C(F)(F)[C@@H]4C[C@H]54)nc4cc(S(C)(=O)=O)ccc4c3=O)c21 (mixture of isomers) [Example 199, N—((S)-1-(3-(4-chloro-1-methyl-3-(methylsulfonamido)-1H-indazol-7-yl)-7-(methylsulfonyl)-4-oxo-3,4-dihydroquinazolin-2-yl)-2-(3,5-difluorophenyl)ethyl)-2-((3bS,4aR)-3-(difluoromethyl)-5,5-difluoro-3b,4,4a,5-tetrahydro-1H-cyclopropa[3,4]cyclopenta[1,2-c]pyrazol-1-yl)acetamide] | > 1 | – | – | EC50 ([1]; Table 1a): 32.8 nM |
| Cn1nc(NS(C)(=O)=O)c2c(Cl)ccc(-n3c([C@H](Cc4cc(F)cc(F)c4)NC(=O)Cn4nc(C(F)F)c5c4C(F)(F)[C@@H]4C[C@H]54)nc4cc(CS(C)(=O)=O)ccc4c3=O)c21 (mixture of isomers) [Example 201, N—((S)-1-(3-(4-chloro-1-methyl-3-(methylsulfonamido)-1H-indazol-7-yl)-7-((methylsulfonyl)methyl)-4-oxo-3,4-dihydroquinazolin-2-yl)-2-(3,5-difluorophenyl)ethyl)-2-((3bS,4aR)-3-(difluoromethyl)-5,5-difluoro-3b,4,4a,5-tetrahydro-1H-cyclopropa[3,4]cyclopenta[1,2-c]pyrazol-1-yl)acetamide] | > 1 | – | – | EC50 ([1]; Table 1a): 71.8 nM |
| Cn1nc(NS(C)(=O)=O)c2c(Cl)ccc(-n3c([C@H](Cc4cc(F)cc(F)c4)NC(=O)Cn4nc(C(F)F)c5c4C(F)(F)[C@@H]4C[C@H]54)nc4cc(C(C)(C)S(C)(=O)=O)ccc4c3=O)c21 (mixture of isomers) [Example 207, N—((S)-1-(3-(4-chloro-1-methyl-3-(methylsulfonamido)-1H-indazol-7-yl)-7-(2-(methylsulfonyl)propan-2-yl)-4-oxo-3,4-dihydroquinazolin-2-yl)-2-(3,5-difluorophenyl)ethyl)-2-((3bS,4aR)-3-(difluoromethyl)-5,5-difluoro-3b,4,4a,5-tetrahydro-1H-cyclopropa[3,4]cyclopenta[1,2-c]pyrazol-1-yl)acetamide] | > 1 | – | – | EC50 ([1]; Table 1a): 4.49 nM |
| Cn1nc(NS(C)(=O)=O)c2c(Cl)ccc(-n3c([C@H](Cc4cc(F)cc(F)c4)NC(=O)Cn4nc(C(F)F)c5c4C(F)(F)[C@@H]4C[C@H]54)nc4cc(C(C)(C)C)ccc4c3=O)c21 (mixture of isomers) [Example 215, N—((S)-1-(7-(tert-Butyl)-3-(4-chloro-1-methyl-3-(methylsulfonamido)-1H-indazol-7-yl)-4-oxo-3,4-dihydroquinazolin-2-yl)-2-(3,5-difluorophenyl)ethyl)-2-((3bS,4aR)-3-(difluoromethyl)-5,5-difluoro-3b,4,4a,5-tetrahydro-1H-cyclopropa[3,4]cyclopenta[1,2-c]pyrazol-1-yl)acetamide] | > 1 | – | – | EC50 ([1]; Table 1a): 354 nM |
| Cn1nc(NS(C)(=O)=O)c2c(Cl)ccc(-n3c(C(Cc4cc(F)cc(F)c4)NC(=O)Cn4nc(C(F)F)c5c4C(F)(F)[C@@H]4C[C@H]54)nc4cccc(Cl)c4c3=O)c21 (mixture of isomers) [Example 22.1, N—((S)-1-(5-chloro-3-(4-chloro-1-methyl-3-(methylsulfonamido)-1H-indazol-7-yl)-4-oxo-3,4-dihydroquinazolin-2-yl)-2-(3,5-difluorophenyl)ethyl)-2-((3bS,4aR)-3-(difluoromethyl)-5,5-difluoro-3b,4,4a,5-tetrahydro-1H-cyclopropa[3,4]cyclopenta[1,2-c]pyrazol-1-yl)acetamide] | – | > 1 | – | EC50 ([1]; Renilla, NL43, Table 1): 31600 nM |
| Cc1cc(F)c2c(=O)n(-c3ccc(Cl)c4c(NS(C)(=O)=O)nn(C)c34)c(C(Cc3cc(F)cc(F)c3)NC(=O)Cn3nc(C(F)F)c4c3C(F)(F)[C@@H]3C[C@H]43)nc2c1 (mixture of isomers) [Example 171, N—((S)-1-(3-(4-chloro-1-methyl-3-(methylsulfonamido)-1H-indazol-7-yl)-5-fluoro-7-methyl-4-oxo-3,4-dihydroquinazolin-2-yl)-2-(3,5-difluorophenyl)ethyl)-2-((3bS,4aR)-3-(difluoromethyl)-5,5-difluoro-3b,4,4a,5-tetrahydro-1H-cyclopropa[3,4]cyclopenta[1,2-c]pyrazol-1-yl)acetamide] | > 1 | – | – | EC50 ([1]; Renilla, NL43, Table 1a): 3.96 nM |
| Cn1nc(NS(C)(=O)=O)c2c(Cl)ccc(-c3cc4scnc4nc3C(Cc3cc(F)cc(F)c3)NC(=O)Cn3nc(C(F)F)c4c3C(F)(F)[C@@H]3C[C@H]43)c21 (single isomer, unassigned) [Example 1.4] | – | > 10 | 0.1 | – |
| Cc1nc2nc(C(Cc3cc(F)cc(F)c3)NC(=O)Cn3nc(C(F)F)c4c3C(F)(F)[C@@H]3C[C@H]43)c(-c3ccc(Cl)c4c(NS(C)(=O)=O)nn(C)c34)cc2s1 (single isomer, unassigned) [Example 2.1] | – | > 10 | 0.1 | – |
| Cc1nc2nc(C(Cc3cc(F)cc(F)c3)NC(=O)Cn3nc(C(F)F)c4c3CCC4)c(-c3ccc(Cl)c4c(NS(C)(=O)=O)nn(C)c34)cc2s1 (single isomer, unassigned) [Example 2.3, N-(1-(6-(4-chloro-1-methyl-3-(methylsulfonamido)-1H-indazol-7-yl)-2-methylthiazolo[4,5-b]pyridin-5-yl)-2-(3,5-difluorophenyl)ethyl)-2-(3-(difluoromethyl)-5,6-dihydrocyclopenta[c]pyrazol-1(4H)-yl)acetamide] | – | > 10 | 0.1 | – |
| O=C(Cc1c[nH]c2ccc(O)cc12)NC(Cc1cc(F)cc(F)c1)c1nc2cn[nH]c2cc1-c1ccc2scnc2c1 (single isomer, unassigned) [Example 3.3, N-(1-(6-(benzo[d]thiazol-5-yl)-1H-pyrazolo[4,3-b]pyridin-5-yl)-2-(3,5-difluorophenyl)ethyl)-2-(5-hydroxy-1H-indol-3-yl)acetamide] | – | 42.4 | 5.7 | – |
| O=C(Cc1c[nH]c2ccc(F)cc12)NC(Cc1cc(F)cc(F)c1)c1nc2cn[nH]c2cc1-c1ccc2scnc2c1 (single isomer, unassigned) [Example 3.5, N-(1-(6-(benzo[d]thiazol-5-yl)-1H-pyrazolo[4,3-b]pyridin-5-yl)-2-(3,5-difluorophenyl)ethyl)-2-(5-fluoro-1H-indol-3-yl)acetamide] | – | 32.1 | 20 | – |
| CC(C)c1ccc(-c2cc3[nH]ncc3nc2C(Cc2cc(F)cc(F)c2)NC(=O)Cn2nc(C(F)F)c3c2C(F)(F)[C@@H]2C[C@H]32)cn1 (single isomer, unassigned) [Example 3.9] | – | 9.6 | – | EC50 ([1]; Renilla, NL43, Table 1): 9.9 nM |
| O=C(Cn1nc(C(F)F)c2c1C(F)(F)[C@@H]1C[C@H]21)NC(Cc1cc(F)cc(F)c1)c1nc2cn[nH]c2cc1-c1ccc(OC(F)F)cc1 (single isomer, unassigned) [Example 3.10] | – | 6.8 | – | EC50 ([1]; Renilla, NL43, Table 1): 320 nM |
| O=C(Cn1nc(C(F)F)c2c1C(F)(F)[C@@H]1C[C@H]21)NC(Cc1cc(F)cc(F)c1)c1nc2cn[nH]c2cc1-c1ccc(C2CC2)cc1 (single isomer, unassigned) [Example 3.11] | – | 4.2 | – | EC50 ([1]; Renilla, NL43, Table 1): 670 nM |
| Cn1nc(NS(C)(=O)=O)c2c(Cl)ccc(-c3cc4[nH]cnc4nc3C(Cc3cc(F)cc(F)c3)NC(=O)Cn3nc(C(F)F)c4c3C(F)(F)[C@@H]3C[C@H]43)c21 (single isomer, unassigned) [Example 4.1] | – | > 10 | 230 | – |
| Cn1nc(NS(C)(=O)=O)c2c(Cl)ccc(-c3cc4[nH]ccc4nc3C(Cc3cc(F)cc(F)c3)NC(=O)Cn3nc(C(F)F)c4c3C(F)(F)[C@@H]3C[C@H]43)c21 (single isomer, unassigned) [Example 5.1] | – | > 10 | 220 | – |

— patent US10954252B1, “Inhibitors of human immunodeficiency virus replication” (ViiV HEALTHCARE UK (NO.5) LIMITED, priority 2017, dated 2021)
